Source: BindingDB's records for doi:10.7270/Q2PK0DMQ (The Scripps Research Institute Molecular Screening Center, 2010)
pIC50: −log10 of the molar value.

Target: Protein-arginine deiminase type-4 (Homo sapiens, UniProt Q9UM07)
Experiment: IC50 against protein arginine deiminase 4 – biochemical, fluorescence readout, dose response (AID 492970)

Sequence of Protein-arginine deiminase type-4 (Q9UM07 whole entry): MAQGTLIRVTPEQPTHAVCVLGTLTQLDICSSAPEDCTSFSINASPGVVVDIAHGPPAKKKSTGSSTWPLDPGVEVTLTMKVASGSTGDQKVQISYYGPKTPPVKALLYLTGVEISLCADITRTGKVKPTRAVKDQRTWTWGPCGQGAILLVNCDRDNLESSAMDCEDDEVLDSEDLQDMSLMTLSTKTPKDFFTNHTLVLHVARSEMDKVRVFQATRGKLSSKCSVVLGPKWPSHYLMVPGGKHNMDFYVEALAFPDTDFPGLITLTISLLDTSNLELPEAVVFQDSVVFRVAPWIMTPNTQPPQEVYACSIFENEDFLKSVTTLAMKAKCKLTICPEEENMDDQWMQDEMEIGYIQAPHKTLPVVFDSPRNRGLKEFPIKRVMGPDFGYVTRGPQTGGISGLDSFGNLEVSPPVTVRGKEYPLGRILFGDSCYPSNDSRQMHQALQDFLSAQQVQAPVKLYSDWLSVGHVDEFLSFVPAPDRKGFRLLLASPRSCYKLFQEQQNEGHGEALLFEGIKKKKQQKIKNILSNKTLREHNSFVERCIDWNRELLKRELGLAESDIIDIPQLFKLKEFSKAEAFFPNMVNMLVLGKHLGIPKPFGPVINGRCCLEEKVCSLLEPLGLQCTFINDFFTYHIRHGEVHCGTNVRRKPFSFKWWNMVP

`O=C1NCC2=Nc3ccccc3NC(c3ccccc3)C12` (stereo unspecified) [MLS000106925] showed a pIC50 of 4.00.
